The source of these data is patent US8592403B2, “Diazepine and diazocane compounds as MC4 agonists” (Pfizer Limited, priority 2008, dated 2013).

The nature of series [1]: In vitro metabolism rate determination, human liver microsome (HLM) assay. The format is in vitro ADME. To be noted: human, liver microsomes, read-out: HLM: Clint, app. An excerpt: In Vitro Metabolism Rate Determination (Human Liver Microsome (HLM); Rat Liver Microsome (RLM) Assay)
Many drugs are metabolised by the cytochrome P450 mono-oxygenase system. This enzyme is found in high concentrations in the liver and is bound to the endoplasmic reticulum of the hepatocyte. The enzyme system can be obtained in semi-purified state by the preparation of the hepatic microsomal fractions. Determining a compound's in vitro half-life in such a system provides a useful indicator of metabolic stability.
Methodology for In Vitro Rate Determination Using Hepatic & Supermix Microsomes
The method outlined below is for a total incubation volume of 1.5 ml.
1. The following mixture is prepared in a test tube:
2. Defrost microsomes at room temperature and add sufficient microsomes to give a final concentration of 0.5 nmol cytochrome P450/ml of incubation e.g. for a 1.5 ml incubation, the volume of microsomes to be added is:
3. Add sufficient MilliQ water to give a total incubation volume of 1.425 ml.
6. Add substrate to the incubation. The substrate should be at an initial concentration of 1 μM. The volume of substrate required in the remaining 1.162.5 ml incubation is calculated as follows: […]
8. Pre-incubate the tube containing the incubation mix, also positive control and no cofactor tubes in the thermostatically controlled shaking water bath set at 37° C. for approx 5 min.
9. Add NADP to initiate reaction (75 μl to each 1.162.5 ml incubation mix, 12.5 μl to positive control tube and 5 μl to no substrate tube) and take first time point immediately. The PNA positive control, no cofactor control and no substrate tubes are incubated for the total incubation time.
10. Remove 100 μl aliquots up to 9 different sampling points from 0 to 60 min (usually 0, 3, 5, 10, 15, 20, 30, 45 & 60 min) and terminate reaction. Longer incubation times can be used, but, after 120 min the microsomes deteriorate. The reaction may be terminated by addition of organic solvent, acid or base. At the end of the incubation process the no cofactor and no substrate controls in a similar manner i.e. terminate with the same reagent.
11. Analyse samples (including no cofactor and no substrate control) by a specific assay for the substrate to determine the disappearance kinetics.
Data obtained using the procedure described above can be quantified in terms of the substrates in vitro intrinsic clearance (Clint). Providing that the substrate concentration is below Km, the metabolism should be 1st order giving a log-linear plot of substrate disappearance with time.
The gradient of this line is the first order rate constant (k) for the substrate disappearance and is determined by regression analysis. This rate constant can be converted to the half-life according to the following equation.
Alternatively the rate constant can be converted to an intrinsic clearance (Clint) according to the following equation:— Clint(μl/min/mg)=(k/protein concentration in incubation (mg/ml))*1000
For orientation: Liver microsomes are a subcellular fraction often used to study metabolism.

The target in series [2] is MC4 receptor (Homo sapiens, UniProt P32245). The series can be described thus: MC4 EC50 functional potency (protocol E of US2005/0176772 / WO 2005/077935). The format is cell-based. As to the method:
The compounds of formula (I) of the present invention have utility as MCR4 agonists in the treatment of various disease states.
MC5 and MC4 EC50 activity was determined as described by assay protocols D and E, respectively, in US2005/0176772 (pages 28-30).

Series [3] concerns the target T1, CYP3A4 (Homo sapiens, UniProt P08684).
T1 construct: utilizes human liver microsomes together with isoform-specific clinical drug probes; from tissue; host or cells: human liver microsomes
The series can be described thus: High density DDI 3 μM cocktail screen in human liver microsomes, midazolam probe. The format is in vitro ADME. To be noted: human, liver microsomes, probe midazolam, read-out: % inhibition 3A4 @ 3 μM. As to the method:
High Density Drug-Drug Interactions (DDI) 3 μM Cocktail Screen
A drug interaction is a situation in which a substance affects the activity of another drug, i.e. the effects are increased or decreased, or together they produce a new effect that neither produces on its own. Drug interactions may be the result of various processes but a relatively common one is where one drug affects the pharmacokinetics of another by inhibiting the cytochrome P450 that metabolises it. Because of the importance of these phenomena, assessment of the DDI potential for new chemical entities (NCEs) is considered important early on in the drug discovery process.
The DDI cocktail screen in human liver microsomes (HLM) is run in a fully automated fashion and the aim of the screen is to provide a single-point assessment of the DDI potential of new chemical entity (NCE; tested at […]) against the 4 primary cytochrome P450 enzymes, 1A2, 2D6, 2C9 and 3A4.
The substrate cocktail approach for P450 DDI utilizes human liver microsomes together with isoform-specific clinical drug probes and permits the simultaneous measurement of the inhibition of P450 1A2, 2C9, 2D6 & 3A4 activities in a single incubation. This is run in high throughput with simultaneous detection of metabolites by LC-MS/MS. This method has been thoroughly tested and evaluated using standard compounds.
Appearance of the metabolite of each substrate is measured over time in the presence and absence of the NCE (test compound/inhibitor) at a concentration of 3 μM. The compounds are assessed for their inhibitory potential as a percentage value and interpreted using the following scheme.

Molecules are shown by their SMILES.

Sequence of MC4 receptor (P32245 whole entry): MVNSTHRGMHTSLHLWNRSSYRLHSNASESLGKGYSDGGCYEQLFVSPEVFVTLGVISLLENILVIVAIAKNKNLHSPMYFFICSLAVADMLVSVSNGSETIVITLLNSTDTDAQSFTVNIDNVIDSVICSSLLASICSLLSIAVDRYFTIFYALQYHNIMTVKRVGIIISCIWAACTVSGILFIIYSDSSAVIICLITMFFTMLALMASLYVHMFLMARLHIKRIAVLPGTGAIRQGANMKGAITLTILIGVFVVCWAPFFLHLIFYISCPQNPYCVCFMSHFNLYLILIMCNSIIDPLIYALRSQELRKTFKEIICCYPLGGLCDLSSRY
T1 sequence (P08684 whole entry, canonical isoform): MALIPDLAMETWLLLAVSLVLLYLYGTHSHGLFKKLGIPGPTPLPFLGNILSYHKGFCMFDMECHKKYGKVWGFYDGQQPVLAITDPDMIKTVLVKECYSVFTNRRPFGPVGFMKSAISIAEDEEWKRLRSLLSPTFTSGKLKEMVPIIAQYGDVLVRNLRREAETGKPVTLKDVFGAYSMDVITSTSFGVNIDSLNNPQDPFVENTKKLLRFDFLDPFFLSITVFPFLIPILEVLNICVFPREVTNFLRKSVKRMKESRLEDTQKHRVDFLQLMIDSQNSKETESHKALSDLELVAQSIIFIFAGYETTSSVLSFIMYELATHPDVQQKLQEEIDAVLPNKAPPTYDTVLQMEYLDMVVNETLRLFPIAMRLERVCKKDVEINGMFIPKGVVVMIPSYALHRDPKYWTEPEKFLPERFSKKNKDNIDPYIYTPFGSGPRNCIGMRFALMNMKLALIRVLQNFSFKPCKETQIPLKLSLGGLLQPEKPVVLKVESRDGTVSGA

In general, EC50 refers to the concentration that produces a half-maximal response. Broadly, the inhibition is the share of the control response that was lost under treatment. In the case of `CC(C)(C)N1C[C@@H](C(=O)N2CCC(c3ccc(Cl)cc3)N(S(C)(=O)=O)CC2)[C@H](c2ccc(F)cc2F)C1` (mixture of isomers) [Example 85], the microsomal CLint at 1 μM in series [1] amounted to 48.4 µL/min/mg. In series [2], this molecule had an EC50 of 404 nM. For the same molecule, in series [3], the inhibition at 3 µM was 30.5%.
On to `COc1ccc([C@@H]2CN(c3ccc(C#N)nn3)C[C@H]2C(=O)N2CCC[C@@H](c3ccc(Cl)cc3)N(C(=O)C(C)C)CC2)c(F)c1` [Example 24], for which the microsomal CLint at 1 μM in series [1] came out at 37.3 µL/min/mg. Also, in series [2], the EC50 stood at 2.27 nM. Besides, in series [3], the inhibition at 3 µM stood at 43.4%.
For the molecule `CC(=O)N1CCN(C(=O)C2CN(c3ccc(C#N)nn3)C[C@H]2c2ccc(F)cc2F)CCC[C@H]1c1ccc(Cl)cc1` (stereo partly shown) [Example 21], in series [3], the inhibition at 3 µM was 35.1%.
As for `CC(=O)N1CCN(C(=O)[C@@H]2CN(C(C)(C)C)C[C@H]2c2ccc(F)cc2F)CCC1c1ccc(F)cc1F` (mixture of isomers) [Example 18], the microsomal CLint at 1 μM in series [1] came out at 34 µL/min/mg. The same molecule gave an EC50 in series [2] of 152 nM. In addition, in series [3], the inhibition at 3 µM was found to be 24.2%.
For `COc1ccc([C@@H]2CN(c3ccc(C#N)nn3)C[C@H]2C(=O)N2CCC[C@@H](c3ccc(Cl)cc3)N(C(=O)CC(F)(F)F)CC2)c(F)c1` [Example 26], in series [1], the microsomal CLint at 1 μM stood at 30.2 µL/min/mg. Besides, in series [2], the EC50 was 8.31 nM. Further, the inhibition at 3 µM in series [3] came out at 20.4%.
Consider `COC(=O)N1CCN(C(=O)C2CN(c3ccc(C#N)nn3)C[C@H]2c2ccc(OC)cc2F)CCC[C@@H]1c1ccc(Cl)cc1` (stereo partly shown) [Example 88], for which the microsomal CLint at 1 μM in series [1] came out at 40.1 µL/min/mg. For the same molecule, the inhibition at 3 µM in series [3] was 21.5%.
The molecule `CC(C)C(=O)N1CCN(C(=O)[C@@H]2CN(c3ccc(C#N)nn3)C[C@H]2c2ccc(F)cc2F)CCC[C@H]1c1ccc(Cl)cc1` [Example 22] registered an EC50 in series [2] of 5.25 nM. Besides, the inhibition at 3 µM in series [3] turned out to be 59.2%.
For the molecule `CC(=O)N1CCN(C(=O)[C@@H]2CN(C(C)(C)C)C[C@H]2c2ccc(F)cc2F)CCC1c1ccc(Cl)cc1` (mixture of isomers) [Example 84], the microsomal CLint at 1 μM in series [1] is 27.9 µL/min/mg. The same molecule returned an EC50 in series [2] of 206 nM.
With `COC(=O)N1CCN(C(=O)[C@@H]2CN(C(C)(C)C)C[C@H]2c2ccc(F)cc2F)CCC1c1ccc(Cl)cc1` (mixture of isomers) [Example 86], in series [1], the microsomal CLint at 1 μM was found to be 29.6 µL/min/mg. In series [2], the EC50 was 97.2 nM. Moreover, the inhibition at 3 µM in series [3] was found to be 20.3%.
The matching figures for `CC(C)C(=O)N1CCN(C(=O)[C@@H]2CN(c3ccc(=O)n(C)n3)C[C@H]2c2ccc(F)cc2F)CCC[C@H]1c1ccc(Cl)cc1` [Example 33, 6-[(3S,4R)-3-{[5S-(4-chlorophenyl)-4-isobutyryl-1,4-diazocan-1-yl]carbonyl}-4-(2,4-difluorophenyl)pyrrolidin-1-yl]-2-methylpyridazin-3(2H)-one]: 17 µL/min/mg, 3.5 nM and 45.2%.
Take `CC(=O)N1CCN(C(=O)[C@@H]2CN(c3ccc(C#N)nn3)C[C@H]2c2ccc(F)cc2F)CCC[C@H]1c1ccc(Cl)cc1` [Example 21]: in series [2], a half-maximal response (EC50) required 9.42 nM.
Regarding `CS(=O)(=O)N1CCN(C(=O)[C@@H]2CN(c3ccc(C#N)nn3)C[C@H]2c2ccc(F)cc2F)CCCC1c1ccc(F)cc1` (mixture of isomers) [Example 77], the microsomal CLint at 1 μM in series [1] was 43 µL/min/mg. Further, a half-maximal response in series [2] (EC50) required 54.6 nM. In addition, in series [3], the inhibition at 3 µM came out at 56.5%.
On to `CC(C)C(=O)N1CCN(C(=O)[C@@H]2CN(c3ccc(=O)n(C)n3)C[C@H]2c2ccc(Cl)cn2)CCC[C@H]1c1ccc(Cl)cc1` [Example 37, 6-[(3S,4S)-3-{[5S-(4-chlorophenyl)-4-isobutyryl-1,4-diazocan-1-yl]carbonyl}-4-(5-chloropyridin-2-yl)pyrrolidin-1-yl]-2-methylpyridazin-3(2H)-one], for which the microsomal CLint at 1 μM in series [1] was 13.9 µL/min/mg. Moreover, it took 2.11 nM to reach a half-maximal effect in series [2] (EC50). For the same molecule, the inhibition at 3 µM in series [3] is 42.3%.
`CC(=O)N1CCN(C(=O)[C@@H]2CN(c3ccc(=O)n(C)n3)C[C@H]2c2ccc(Cl)cn2)CCC[C@H]1c1ccc(Cl)cc1` [Example 36] registered an EC50 in series [2] of 7.67 nM.
Take `COC(=O)N1CCN(C(=O)[C@@H]2CN(c3ccc(=O)n(C)n3)C[C@H]2c2ccc(Cl)cn2)CCC[C@H]1c1ccc(Cl)cc1` [Example 47, methyl 8S-(4-chlorophenyl)-4-{[(3S,4S)-4-(5-chloropyridin-2-yl)-1-(1-methyl-6-oxo-1,6-dihydropyridazin-3-yl)pyrrolidin-3-yl]carbonyl}-1,4-diazocane-1-carboxylate]: the microsomal CLint at 1 μM in series [1] amounted to 20.6 µL/min/mg. Further, the EC50 in series [2] is 5.11 nM. Also, the inhibition at 3 µM in series [3] turned out to be 54.2%.
For the molecule `COC(=O)N1CCN(C(=O)C2CN(c3ccc(C#N)nn3)CC2c2ccc(OC)cc2F)CCC[C@H]1c1ccc(Cl)cc1` (stereo partly shown) [Example 89], the microsomal CLint at 1 μM in series [1] was determined as 42.9 µL/min/mg. Moreover, the inhibition at 3 µM in series [3] worked out at 28.5%.
As to `CC(C)(C)N1C[C@@H](C(=O)N2CCC[C@@H](c3ccc(Cl)cc3)N(C(=O)C3CC(F)(F)C3)CC2)[C@H](c2ccc(Cl)cn2)C1` [Example 63], the microsomal CLint at 1 μM in series [1] is 9.43 µL/min/mg. Moreover, in series [2], the response was half-maximal at 85.3 nM (EC50). Moreover, the inhibition at 3 µM in series [3] is 55.6%.
With `CC(C)(C)N1C[C@@H](C(=O)N2CCC[C@@H](c3ccc(Cl)cc3)N(C(=O)C3N=CC=N3)CC2)[C@H](c2ccc(F)cc2F)C1` [Example 64], it took 247 nM to reach a half-maximal effect in series [2] (EC50).
Regarding `CC(=O)N1CCN(C(=O)[C@@H]2CN(c3ccc(=O)n(C)n3)C[C@H]2c2ccc(F)cc2F)CCC[C@H]1c1ccc(Cl)cc1` [Example 32], the microsomal CLint at 1 μM in series [1] turned out to be 14.8 µL/min/mg. In series [2], this molecule displayed an EC50 of 6.63 nM.
`CCC(=O)N1CCN(C(=O)[C@@H]2CN(c3ccc(=O)n(C)n3)C[C@H]2c2ccc(F)cc2F)CCC[C@H]1c1ccc(Cl)cc1` [Example 35] yielded an EC50 in series [2] of 5.29 nM. For the same molecule, in series [3], the inhibition at 3 µM was determined as 68.3%.
In series [2], `CCC(=O)N1CCN(C(=O)[C@@H]2CN(c3ccc(=O)n(C)n3)C[C@H]2c2ccc(Cl)cn2)CCC[C@H]1c1ccc(Cl)cc1` [Example 38] registered an EC50 of 6.9 nM.
In the case of `COC(=O)N1CCN(C(=O)[C@@H]2CN(C(C)(C)C)C[C@H]2c2ccc(F)cc2F)CCC1c1ccc(F)cc1F` (mixture of isomers) [Example 54], the microsomal CLint at 1 μM in series [1] was found to be 32.8 µL/min/mg. The same molecule had an EC50 in series [2] of 44.8 nM.
The matching figures for `CC(C)(C)N1C[C@@H](C(=O)N2CCC(c3ccc(F)cc3F)N(S(C)(=O)=O)CC2)[C@H](c2ccc(F)cc2F)C1` (mixture of isomers) [Example 43]: 52 µL/min/mg and 397 nM.
Regarding `N#Cc1ccc(N2C[C@@H](C(=O)N3CCC[C@@H](c4ccc(Cl)cc4)N(C(=O)CC(F)(F)F)CC3)[C@H](c3ccc(F)cc3F)C2)nn1` [Example 58], the EC50 in series [2] amounted to 22.1 nM. Further, the inhibition at 3 µM in series [3] is 46.5%.
In series [2], `CCOC(=O)N1CCN(C(=O)[C@@H]2CN(C(C)(C)C)C[C@H]2c2ccc(F)cc2F)CCC[C@H]1c1ccc(Cl)cc1` [Example 52] came in with an EC50 of 35.2 nM. In addition, the inhibition at 3 µM in series [3] turned out to be 0%.
